Measurements taken from article PMC10722499, “Consumption of Roasted Coffee Leads to Conjugated Metabolites of Atractyligenin in Human Plasma” (Journal of Agricultural and Food Chemistry, 2023).
Where two headings read alike, the source gives them in different places.

Test: Human coffee intervention study: plasma concentrations after roasted coffee brew by UPLC-MS/MS
Assay type: in vivo
Details: for samples above the LLOQ: n = 10; for concentration at 1 h / concentration at 4 h / concentration at 10 h: human, plasma
Experimental: The study included ten volunteers (5 females, 5 males) (age: 28.3 ± 2.3 years; BMI: 21.89 ± 2.22 kg/m^2). The intervention study took place from November 5, 2021, to February 17, 2022, in the core facility human studies of the ZIEL Institute for Food and Health of the Technical University of Munich. The study was performed in agreement with the Declaration of Helsinki, and all participants gave written informed consent. The study was approved by the Ethics Committee of the Technical University of Munich (5798/13 S-SR) and registered in the German Register of Clinical Studies (DRKS00005083).
The study participants underwent a dietary protocol that excluded all forms of coffee consumption. Additionally, chocolate, black/green/white, mate tea, cola, energy drinks, and beauty products containing caffeine (e.g., shampoos, creams) were prohibited 1 week before the test day. Furthermore, the study participants received a standardized meal the evening before the test day. The meal was composed of pasta, margarine, and salt, and the amount of energy was calculated based on the participant’s basal energy demand. On the morning of the test day, the participants were in a fastened state and received water (control samples) or coffee brew (coffee intervention) as breakfast. Blood was sampled before coffee intake (0 h) and at defined time points (1, 4, and 10 h) after coffee intake. 6 h after the coffee intake, the participants received lunch, the same standardized meal as the previous dinner. The administered coffee was prepared from a coffee capsule (Nespresso, ROMA) with 100 mL water. The administered volume of the coffee brew was 200 mL. Based on the coffee powder per capsule ([…]), the concentrations of 2 (2.8 μmol/g) and 3 (1.1 μmol/g), respectively,[10] and an estimated extraction rate of 100%, the total ingested amounts were 33.6 μmol (2) and 13.2 μmol (3).
In an Eppendorf tube (1.5 mL), aliquots (50 μL each) of the calibration standard, sample, or QC, respectively, were mixed with the IS solution (1000 nM in ethanol, 50 μL) and acetonitrile/ethanol (9 + 1, v + v, 50 μL) was added. After vortexing, suspensions were cleared by centrifugation (12,000 rpm, 4 °C, 10 min), and the supernatant (∼100 μL) was transferred to an HPLC vial with 200 μL insert for analysis (5 μL injection).
The UPLC–MS/MS system consisted of a Shimadzu Nexera X2 UPLC system (Shimadzu, Duisburg, Germany) hyphenated to a QTrap 5500 MS/MS system (Sciex, Darmstadt, Germany) operating in negative electrospray (ESI^–) mode with the following ion source parameters: ion spray voltage: −4500 V; source temperature: 500 °C; nebulizer gas: 55 psi; heater gas: 65 psi; and curtain gas: 35 psi. The MS/MS parameters, including the collision cell entrance potential (CEP), declustering potential (DP), collision energy (CE), and cell exit potential (CXP), were tuned for each compound and mass transition and are summarized in Supporting Table S3. The dwell time for each compound was 30 ms, and the total cycle time was 0.75 s. Chromatographic separation was achieved on a C18 column (Kinetex C18, 100 mm × 2.1 mm, 1.7 μm, Phenomenex, Aschaffenburg, Germany) at a flow rate of 500 μL/min flow rate. Eluent A was 0.1% formic acid in water, and eluent B was 0.1% formic acid in acetonitrile. B was kept at 3% (1 min), increased to 25% (in 3 min), 90% (in 2 min, 1 min isocratic), and 3% (0.5 min, 2.5 min isocratic). The total time of the analysis was 10 min. The column effluent was introduced from the waste to the MS/MS system between 3 and 7 min.
We applied this method to human plasma samples from a coffee intervention study to investigate the appearance of coffee compounds 1–3 and metabolites M1–M3. Ten participants underwent a washout period (7 days) and then consumed one dose of […]. Blood samples were taken at baseline (0 h) and 1, 4, and 10 h after the intervention. […]

plasma level at baseline (0 h, before coffee intake, human plasma): no peaks were detected | plasma concentration, mean ± SD (4 h after coffee brew (200 mL), human plasma, values above LLOQ): 11.7 ± 10.7 nM | samples above the LLOQ (4 h after coffee): 80% | plasma concentration, mean ± SD (10 h after coffee brew (200 mL), human plasma, values above LLOQ): 13.1 ± 5.8 nM | samples above the LLOQ (10 h after coffee): 90% | concentration at 1 h (both sexes, oral, 200 mL, 1 h after coffee brew (200 mL), human plasma, values above LLOQ, read-out: plasma concentration, mean ± SD): 25.1 ± 4.9 nM | concentration at 4 h (both sexes, oral, 200 mL, 4 h after coffee brew (200 mL), human plasma, values above LLOQ, read-out: plasma concentration, mean ± SD): 14.2 ± 10.5 nM | concentration at 10 h (both sexes, oral, 200 mL, 10 h after coffee brew (200 mL), human plasma, values above LLOQ, read-out: plasma concentration, mean ± SD): 14.4 ± 4.4 nM | Cmax (both sexes, oral, human plasma after coffee brew (200 mL), n = 10, mean ± SD, read-out: estimated cmax in plasma): 25.1 ± 4.9 nM | time of estimated cmax (human plasma after coffee brew (200 mL), sampling only at 0, 1, 4, 10 h): 1 h | concentration at 4 h (oral, 200 mL coffee brew, participant xrwz, 4 h after coffee, b = below LLOQ, read-out: plasma concentration, individual): 1.7 nM | concentration at 1 h (oral, 200 mL, participant ayia, 1 h after coffee, read-out: plasma concentration, individual): 16.4 nM | concentration at 4 h (oral, 200 mL, participant ayia, 4 h after coffee, b = below LLOQ, read-out: plasma concentration, individual): 1.7 nM | concentration at 10 h (oral, 200 mL, participant ayia, 10 h after coffee, read-out: plasma concentration, individual): 17.2 nM | concentration at 1 h (oral, 200 mL, participant cbdu, 1 h after coffee, b = below LLOQ, read-out: plasma concentration, individual): 24.6 nM | concentration at 4 h (oral, 200 mL, participant cbdu, 4 h after coffee, read-out: plasma concentration, individual): 2.9 nM | concentration at 10 h (oral, 200 mL, participant cbdu, 10 h after coffee, read-out: plasma concentration, individual): 17.8 nM | concentration at 1 h (oral, 200 mL, participant eogo, 1 h after coffee, b = below LLOQ, read-out: plasma concentration, individual): 30 nM | concentration at 4 h (oral, 200 mL, participant eogo, 4 h after coffee, b = below LLOQ, read-out: plasma concentration, individual): 4.6 nM | concentration at 10 h (oral, 200 mL, participant eogo, 10 h after coffee, b = below LLOQ, read-out: plasma concentration, individual): 12.3 nM | concentration at 1 h (oral, 200 mL, participant ggot, 1 h after coffee, read-out: plasma concentration, individual): 32.2 nM | concentration at 4 h (oral, 200 mL, participant ggot, 4 h after coffee, b = below LLOQ, read-out: plasma concentration, individual): 9.7 nM | concentration at 10 h (oral, 200 mL, participant ggot, 10 h after coffee, b = below LLOQ, read-out: plasma concentration, individual): 1.7 nM | concentration at 1 h (oral, 200 mL, participant imhz, 1 h after coffee, read-out: plasma concentration, individual): 30.6 nM | concentration at 4 h (oral, 200 mL, participant imhz, 4 h after coffee, read-out: plasma concentration, individual): 10.5 nM | concentration at 10 h (oral, 200 mL, participant imhz, 10 h after coffee, read-out: plasma concentration, individual): 21.5 nM | concentration at 1 h (oral, 200 mL, participant mgjj, 1 h after coffee, read-out: plasma concentration, individual): 23.6 nM | concentration at 4 h (oral, 200 mL, participant mgjj, 4 h after coffee, read-out: plasma concentration, individual): 12.4 nM | concentration at 10 h (oral, 200 mL, participant mgjj, 10 h after coffee, read-out: plasma concentration, individual): 17.5 nM | concentration at 1 h (oral, 200 mL, participant rrmk, 1 h after coffee, read-out: plasma concentration, individual): 22 nM | concentration at 4 h (oral, 200 mL, participant rrmk, 4 h after coffee, b = below LLOQ, read-out: plasma concentration, individual): 19.7 nM | concentration at 10 h (oral, 200 mL, participant rrmk, 10 h after coffee, read-out: plasma concentration, individual): 14.4 nM | concentration at 1 h (oral, 200 mL, participant wbqj, 1 h after coffee, b = below LLOQ, read-out: plasma concentration, individual): 27.5 nM | concentration at 4 h (oral, 200 mL, participant wbqj, 4 h after coffee, b = below LLOQ, read-out: plasma concentration, individual): 36 nM | concentration at 10 h (oral, 200 mL, participant wbqj, 10 h after coffee, b = below LLOQ, read-out: plasma concentration, individual): 8.5 nM | concentration at 1 h (oral, 200 mL, participant wbvs, 1 h after coffee, read-out: plasma concentration, individual): 23.8 nM | concentration at 4 h (oral, 200 mL, participant wbvs, 4 h after coffee, read-out: plasma concentration, individual): 17.8 nM | concentration at 10 h (oral, 200 mL, participant wbvs, 10 h after coffee, read-out: plasma concentration, individual): 9.7 nM | concentration at 1 h (oral, 200 mL, participant xrwz, 1 h after coffee, read-out: plasma concentration, individual): 20.2 nM | concentration at 10 h (oral, 200 mL, participant xrwz, 10 h after coffee, b = below LLOQ, read-out: plasma concentration, individual): 10.5 nM | participants in whom plasma concentration increased between 4 and 10 h (individual plots, after first maximum at 1 h): 60%
SMILES: C=C1C2CCC3C4(C)CC(O)CC(C(=O)OC5OC(C(=O)O)C(O)C(O)C5O)C4CCC3(C2)C1O [M1, atractyligenin-19-O-β-D-glucuronide]
